Measurements reported in paper PMC3666196, “Formulation and Particle Size Reduction Improve Bioavailability of Poorly Water-Soluble Compounds with Antimalarial Activity” (Malaria Research and Treatment, 2013).
Blank lines part the entries; values can stand above or below the compound they belong to.

How the values were obtained:
[1] = Particle size measurement by laser scattering (Horiba LA-950) and stability of suspensions stored at 4°C; format: physicochemical
Method: The particle size was measured using a Horiba LA-950 particle size distribution analyzer (Kyoto, Japan), based on laser scattering. This particular instrument has a measurement period of less than 2 minutes from introduction of sample to data presentation with a sample requirement for testing of 2–5 mg per measurement in a 150 mL flow cell, depending on the sample type. All DQ and WR2996666 preparations were measured at a range of transmittance between 80–90%. Various volumes ranging from 100 μL to 800 μL of samples with about 5–10 mg solid from each vial were tested in this instrument to determine the mean particle size, which was the particle size parameter referred in the results. In order to see the change of particle size of various preparations over time, an accelerated stability study of prepared micro- and nanosuspensions were carried out at a temperature of 4°C for a period of up to 3 weeks. Accurately weighed amounts of samples were placed into glass vials with aluminum-lined caps and stored in a microprocessor-controlled humidity chamber, and the samples were then characterized as a function of exposed time. The stability of particles shown in Tables 1 and 2 was some of the preparations evaluated in this study. Generally, the particles in aqueous suspension dosed in our animals were stable for at least 3 weeks.

[2] = HPLC check of drug integrity after formulation and HPH; format: physicochemical; conditions: any of the preparations including microparticles and nanoparticles
Method: The rehydrated DQ nanoparticle formulations were evaluated by particle size measurement, determination of drug concentration in the whole suspension as well as in the fine particles less than […], and PK study in drug dosed animals. The particle size was monitored throughout the preparation procedure and before and after animal studies. To ensure that there was no change of the drug integrity in any of the formulation procedure, drug concentrations and chromatography profiles of the drug molecule identity were examined by an Agilent HPLC (Agilent Technologies, Foster City, CA) with an isocratic mobile phase of 20% water and 80% acetonitrile (0.1% formic acid contained in water and acetonitrile, resp.). All drug preparations in aqueous system were diluted in methanol with vigorous vortex and then in acetonitrile for HPLC analysis. This was done to obtain complete extraction of the compound prior to loading the samples to HPLC. To evaluate the amount of DQ in the fine particles, formulation suspensions were prepared in the amount of 10 mg/mL of DQ in water, incubated at 37°C for 2 hours and passed through a […] size filter. […] In order to determine the actual dosage of the drug for animal studies, the concentration of the drug used for dosing animals was determined by HPLC without prior particle size fractionation with filtration.

[3] = design: method as in earlier work; conditions: buffered water pH 4–9; cited from earlier work
[4] = design: method as in PMID 11000543; conditions: formulated into various solid dispersions; cited from earlier work

Particle size of generated nanoparticles ([1]; DQ formulation with poloxamer 407 as surfactant, after HPH): > 0.5 μm
Particle size ([1]; DQ in water or HECT suspension, method HG (homogenizer with generator), stored at 4°C, Week 1): 99.23 μm
Particle size ([1]; DQ suspension in HECT, method US (ultra-sonicator), stored at 4°C, Week 1): 36.62 μm
Particle size ([1]; DQ suspension, method HG, stored at 4°C, Mean of weeks 1-3): 102.04 μm
Particle size ([1]; DQ suspension, method HG, stored at 4°C, Week 2): 101.33 μm
Particle size ([1]; DQ suspension, method HG, stored at 4°C, Week 3): 105.56 μm
Particle size ([1]; DQ suspension, method US, stored at 4°C, Mean of weeks 1-3): 36.88 μm
Particle size ([1]; DQ suspension, method US, stored at 4°C, Week 2): 36.97 μm
Particle size ([1]; DQ suspension, method US, stored at 4°C, Week 3): 36.92 μm
Particle size ([1]; DQ, method SD (solid dispersion) plus HPH, in water, stored at 4°C, Week 1): 0.401 μm
Particle size ([1]; DQ, method SD plus HPH, stored at 4°C, Mean of weeks 1-3): 0.392 μm
Particle size ([1]; DQ, method SD plus HPH, stored at 4°C, Week 2): 0.384 μm
Particle size ([1]; DQ, method SD plus HPH, stored at 4°C, Week 3): 0.377 μm
Particle size of DQ formulations ([1]; solid dispersion with polymers and surfactants, sonication followed by HPH at 1500–2500 bars, 120 homogenization cycles): 0.2–0.4 μm
Chromatography profile (mass quantity, retention time) after formulation process and HPH [2]: no change in chromatography profile
Structure (SMILES): CCCCCCCCCCOc1cc2c(O)c(C(=O)OCC)cnc2cc1OCC [DQ, ethyl 6-decyloxy-7-ethoxy-4-hydroxy-3-quinolinecarboxylate, reference compound]
Solubility in water [3]: < 0.01 µg/mL

Particle size ([1]; WR299666, HPH at 2500 bars in 6 homogenization cycles): 0.38–0.48 μm
Particle size ([1]; WR299666 in water or HECT suspension, method Grinder, stored at 4°C, Week 1): 42.54 μm
Particle size ([1]; WR299666 suspension, method Grinder, stored at 4°C, Mean of weeks 1-3): 42.22 μm
Particle size ([1]; WR299666 suspension, method Grinder, stored at 4°C, Week 2): 41.07 μm
Particle size ([1]; WR299666 suspension, method Grinder, stored at 4°C, Week 3): 43.05 μm
Particle size ([1]; WR299666 suspension, method HG, stored at 4°C, Mean of weeks 1-3): 61.88 μm
Particle size ([1]; WR299666 suspension, method HG, stored at 4°C, Week 1): 66.31 μm
Particle size ([1]; WR299666 suspension, method HG, stored at 4°C, Week 2): 71.85 μm
Particle size ([1]; WR299666 suspension, method HG, stored at 4°C, Week 3): 47.49 μm
Particle size ([1]; WR299666 suspension, method HPH, stored at 4°C, Mean of weeks 1-3): 0.406 μm
Particle size ([1]; WR299666 suspension, method HPH, stored at 4°C, Week 1): 0.376 μm
Particle size ([1]; WR299666 suspension, method HPH, stored at 4°C, Week 2): 0.397 μm
Particle size ([1]; WR299666 suspension, method HPH, stored at 4°C, Week 3): 0.445 μm
Particle size ([1]; WR299666 suspension, method US, stored at 4°C, Mean of weeks 1-3): 1.5 μm
Particle size ([1]; WR299666 suspension, method US, stored at 4°C, Mean of weeks 1-3, listed as W299666): 1.50 μm
Particle size ([1]; WR299666 suspension, method US, stored at 4°C, Week 1): 1.52 μm
Particle size ([1]; WR299666 suspension, method US, stored at 4°C, Week 2): 1.58 μm
Particle size ([1]; WR299666 suspension, method US, stored at 4°C, Week 3): 1.41 μm
Average particle size of starting raw material ([1]; without treatment): above 70 μm
Structure (SMILES): [H]/N=C(/N=C1NC(=O)C(=O)N1C)Nc1ccc(Cl)c(Cl)c1 [WR299666, (E)-1-(3,4-dichlorophenyl)-3-(1-methyl-4,5-dioxoimidazolidin-2-ylidene) guanidine]

Structure (SMILES): CCCCN(CCCC)CCC(O)c1cc2c(Cl)cc(Cl)cc2c2cc(C(F)(F)F)ccc12 (stereo not drawn) [halofantrine]
Increase in absolute bioavailability [4]: five- to seven
